Test results reported in patent US20200268703A1, “MEDICINE FOR TREATING ADVANCED OR RECURRENT CANCER PATIENT BEING NON-RESPONSIVE OR NON-TOLERANT TO STANDARD CHEMOTHERAPY AND INCURABLE AND UNRESECTABLE” (HYOGO COLLEGE OF MEDICINE, priority 2017, published 2020).

What was measured:
[1] = system: human gastric cancer cell line MKN45 (MKN45 KO cells); assay: Apoptosis-inducing activity by PBMC of oral cavity cancer patient after administration of propagermanium; assay type: cell-based; conditions: for Increase of apoptosis-inducing activity compared to before starting the administration: time point of 48 hours
Procedure: MKN45 KO cells obtained by fluorescently labeling human gastric cancer cell line MKN45 with Kurabira Orange (1×10^4 cells) were cultured using an RPMI 1640 medium containing 10% FBS in 35 mm dishes (Day 0). On next day (Day 1), the medium was changed to an F12-K medium (2 mL) containing 10% FBS, and in Experimental Example 5, a suspension of peripheral blood mononuclear cells (1×10^6 cells) separated from peripheral blood of the oral cavity cancer patient of PG-4 before the administration of the propagermanium and on 28th and 56th days after the administration in F12-K medium (1 mL) is added to the culture dish. Furthermore, 3 μL of IncuCyte (registered trademark) Caspase-3/7 Green Apoptpsis Reagent (Cat No. 4440, produced by Essen BioScience) was added and cultured. Time-lapse photography was performed every 10 minutes for 48 hours, by using BioStation (produced by Nikon Corporation) (Days 1 to 3). An animation was created from result of photography for 48 hours, and the numbers of viable gastric cancer cells (with orange fluorescence) at and apoptosis-induced gastric cancer cells (with green fluorescence) at the time points of 0, 8, 16, 24, 32, 40, and 48 hours were calculated respectively. When calculating the number of cells, 100 to 150 cells were targeted at time point of 48 hours, and cells of 4 to 5 fields of view were summed at 200 times observation by a microscope at each time point. In addition, at each time point, only cells that adhered to the culture dish and could be continuously observed were targeted for counting, and cells that were slightly out of an imaging field of stratified cells were excluded from counting.
The apoptosis-inducing activity (%) at each time point was calculated by using Expression (II) below.
{Number of apoptosis-induced gastric cancer cells/(Number of viable gastric cancer cells+Number of apoptosis-induced gastric cancer cells)}×100 (II)

[2] = system: advanced or recurrent oral cavity cancer; assay: Tumor immunity risk index value, OS and disease course in oral cavity cancer patients given propagermanium; assay type: in vivo, human; conditions: for OS: BSC median 46 days
Procedure: 30 mg of propagermanium [trade name: SEROCION (registered trademark), produced by SANWA KAGAKU KENKYUSHO CO., LTD.] was administered orally in three divided doses per day after meals to 4 patient cases (PG-1 to PG-4) who were diagnosed as advanced or recurrent oral cavity cancer which is non-responsive or non-tolerant to the standard chemotherapy and incurable and unresectable, a 2 patient cases (PG-5 and PG-6) who were diagnosed as advanced or recurrent gastric cancer which is non-responsive or non-tolerant to the standard chemotherapy [gastric cancer treatment guideline fourth edition (edited by Japan Gastric cancer Association, revised in May 2014)] and incurable and unresectable, and 5 healthy person cases (PG-7 to PG-11). 7.5 mL of peripheral blood of the cancer patients (PG-1 and PG-3: only before administration, PG-5 and PG-6: before administration and only 28th day after a start of administration) and healthy persons (all: only before the administration), were collected by a BD vacutainer blood collection tube at the time before the administration of the propagermanium and on 28th and 56th days after starting the administration. Thereafter, and the peripheral blood was centrifuged (1500 G for 15 minutes) to obtain the peripheral blood mononuclear cells (PBMC). The obtained peripheral blood mononuclear cells were fixed and stained using a T cell surface marker and a mouse IgG anti-human antibody against intracellular keratin. The stained cells were analyzed by flow cytometry using a Spectral Cell Analyzer (SP-6800, manufactured by SONY).
Regarding the T cells and the cytotoxic T cells, among living cells, CD45 positive and CD3 positive cells are separated to obtain T cells, and among the CD45 positive and CD3 positive cells, CD8 positive and CD4 negative cells are separated to obtain the cytotoxic T cells. The proportion of the cytotoxic T cells in the T cells was calculated.
In the circulating tumor cells in blood, in order to label the cytokeratin present inside the cells, after using Perm Buffer reagent (#421403, produced by BioLegend), staining was performed using a pankeratin antibody (#4523, produced by Cell Signaling). Since the circulating tumor cells in blood are larger than lymphocytes, when flow cytometry is performed, cells were selected in a wider range than in the selection of normal lymphocytes. After selecting cells negative in staining using Ghost Dye Violet 450 as living cells, pankeratin positive cells were regarded as the circulating tumor cells in blood, and the number of the pankeratin positive cells in 10000 peripheral blood mononuclear cells was calculated.
The calculated number of the pankeratin positive cells and the proportion of cytotoxic T cells in the T cells is substituted into Expression (1) below.
Number of pankeratin positive cells (pieces)/Proportion of cytotoxic T cells in T cells (%)/10 (I)
The disease of each patient was determined by an attending physician based on results of endoscopy, computed tomography (CT) examination, positron emission tomography (PET)-CT examination, magnetic resonance imaging (MRI) examination, X-ray (X-P) examination, and blood biochemistry examination including the major markers.

[3] = patient PG-2 (oral cavity cancer)

**Q.** For propagermanium, which “Increase of apoptosis-inducing activity compared to before starting the administration” value ([1]; 28th day after starting administration) is on record?
**A.** approximately 3.1 times

**Q.** And the “Increase of apoptosis-inducing activity compared to before starting the administration” value ([1]; 56th day after starting administration)?
**A.** approximately 3.7 times

**Q.** And the Apoptosis-inducing activity ([1]; PBMC of patient PG-4, 28th day after starting administration, culture for 0 hours)?
**A.** 0.00%

**Q.** And the Apoptosis-inducing activity ([1]; PBMC of patient PG-4, 28th day after starting administration, culture for 48 hours, before administration 4.00)?
**A.** 12.50%

**Q.** And the Apoptosis-inducing activity ([1]; PBMC of patient PG-4, 56th day after starting administration, culture for 0 hours)?
**A.** 0.00%

**Q.** And the Apoptosis-inducing activity ([1]; PBMC of patient PG-4, 56th day after starting administration, culture for 48 hours, before administration 4.00)?
**A.** 14.60%

**Q.** What about the “Evaluation of the administration (effective / ineffective)” value (“Evaluation … (effective / ineffective)” below) ([2]; patient PG-1 (oral cavity cancer)) of the same substance?
**A.** ineffective

**Q.** What about the OS ([2]; patient PG-1 (oral cavity cancer), administration discontinued midway) of the same substance?
**A.** 39 days

**Q.** What about the Disease course ([2]; patient PG-1 (oral cavity cancer), from the start of administration) of the same substance?
**A.** disease got worse

**Q.** And the “Evaluation … (effective / ineffective)” value [2, 3]?
**A.** effective

**Q.** And the Disease course ([2]; patient PG-2 (oral cavity cancer), 28th day after starting administration)?
**A.** disease was controlled

**Q.** What about the “Tumor immunity risk index value” ([2]; patient PG-2 (oral cavity cancer), 28th day after starting administration, before 0.27) of the same substance?
**A.** 1.70

**Q.** And the “Tumor immunity risk index value” ([2]; patient PG-2 (oral cavity cancer), 56th day after starting administration, before 0.27)?
**A.** 4.93

**Q.** What about the OS [2, 3] of the same substance?
**A.** 105 days

**Q.** And the “Evaluation … (effective / ineffective)” value ([2]; patient PG-3 (oral cavity cancer))?
**A.** ineffective

**Q.** What about the OS ([2]; patient PG-3 (oral cavity cancer), administration discontinued midway) of the same substance?
**A.** 36 days

**Q.** What about the Disease course ([2]; patient PG-3 (oral cavity cancer), from the start of administration) of the same substance?
**A.** disease got worse

**Q.** And the “Evaluation … (effective / ineffective)” value ([2]; patient PG-4 (oral cavity cancer))?
**A.** effective

**Q.** And the Disease course ([2]; patient PG-4 (oral cavity cancer), 28th and 56th days after starting administration)?
**A.** disease was controlled at any time point

**Q.** What about the “Tumor immunity risk index value” ([2]; patient PG-4 (oral cavity cancer), 28th day after starting administration, before 2.07) of the same substance?
**A.** 0.49

**Q.** What about the “Tumor immunity risk index value” ([2]; patient PG-4 (oral cavity cancer), 56th day after starting administration, before 2.07) of the same substance?
**A.** 1.77

**Q.** What about the OS ([2]; patient PG-4 (oral cavity cancer), counted before the chemotherapy intervention) of the same substance?
**A.** 85 days
